Measured values taken from patent publication US20250276993A1, “PSEUDO-DISACCHARIDE COMPOUNDS” (UNIVERSITEIT LEIDEN, priority 2022, published 2025).

Experiments:
rHPSE = biological target: T1, rHPSE (Homo sapiens, UniProt Q9Y251); experiment: in-gel competitive ABPP, recombinant HPSE; format: biochemical; settings: apparent IC50, in-gel competitive ABPP-based assay; read-out: In vitro IC50 rHPSE
T1 sequence (Q9Y251 36-109 limits assumed): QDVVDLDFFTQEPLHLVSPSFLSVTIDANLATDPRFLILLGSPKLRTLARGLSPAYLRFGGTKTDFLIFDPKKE
T1 sequence (Q9Y251 158-543 limits assumed): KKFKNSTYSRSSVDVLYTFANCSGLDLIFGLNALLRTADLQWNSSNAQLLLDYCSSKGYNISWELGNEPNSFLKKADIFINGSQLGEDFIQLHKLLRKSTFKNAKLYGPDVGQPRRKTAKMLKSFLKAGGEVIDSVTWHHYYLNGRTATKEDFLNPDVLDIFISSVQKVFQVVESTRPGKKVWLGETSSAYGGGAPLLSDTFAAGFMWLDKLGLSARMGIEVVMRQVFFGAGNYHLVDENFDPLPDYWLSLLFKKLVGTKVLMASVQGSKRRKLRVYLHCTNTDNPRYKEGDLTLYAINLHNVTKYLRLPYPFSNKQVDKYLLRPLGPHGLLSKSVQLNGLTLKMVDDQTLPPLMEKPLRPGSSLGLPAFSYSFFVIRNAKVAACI
Description: ABP labelling reactions were carried out in Mcllvaine buffer (pH 5.5), 300 mM NaCl. For recombinant proteins 200 fmol of EcGH2, BpHep, AcGH79, HPSE or proHPSE was used (20 nM in 10 μl final reaction volume). For labeling cell lysates, 4-20 μg total protein was used. Labeling reactions were initiated by the addition of ABP compounds 7, 8 or 9 to a final concentration of 100 nM (unless otherwise specified), before incubation for 30 min at 37° C. with shaking. Following labeling, samples were denatured by boiling with Laemmli buffer for 5 min and resolved by SDS-PAGE. Gels were scanned using Typhoon-5 laser scanner platform (Cytiva), using the λEX 635 nm laser and 670BP30 emission filter. For competitive ABPP (cABPP) experiments, protein mixtures were preincubated with inhibitor (or buffer only control) for 1 h at 37° C. with shaking, before the addition of 7 to a final concentration of 100 nM, and subsequent incubation for 30 min at 37° C. with shaking. SDS-PAGE and analysis steps were carried out as above. For quantitative measurements, fluorescently labeled band intensities were calculated using Imagequant (Cytiva), and normalized to the corresponding band in the inhibitor free control lane. cABPP plots were prepared and analyzed using SigmaPlot 14.0 (Systat).
Competitive activity of compounds 2, 12 and 13 were investigated using cABPP Assay 2.
To gain insight into HPSE structure-activity relationships, apparent HPSE inhibition was tested for cyclitol 12, its disaccharidic analogue 13 and parent HPSE inhibitor 2 (FIG. 7a). […] Conversely, 13 could inactivate rHPSE down to 2 μM inhibitor concentration similar to 2.

B16-BL6 melanoma cells = experiment: B16 melanoma experimental lung metastasis model; format: in vivo, C57BL/J6 mice; settings: after 14 days; 2: 300 nmol/mouse i.p.; SST0001: 150 μg/mouse i.p.; vs PBS-only control
Description: B16 melanoma—Twenty minutes before tumor cell inoculation, C57BL/J6 mice (n=5) were injected intraperitoneally with vehicle alone (PBS), compound 2 (300 nmol/mouse), or SST0001 (150 μg/mouse). Mice were subsequently intravenously inoculated with 1.5×10^5 B16-BL6 melanoma cells/mouse in a volume of 100 μL, alongside 20 μM 2 or 10 μg SST0001. Mice were sacrificed after 14 days and the lungs were dissected, photographed and evaluated for the number of metastatic foci/lung.
The compounds of the invention were tested against a B16 murine melanoma experimental metastasis model, which measures the formation of metastatic lung tumors by B16 cancer cells after intravenous (i.v.) injection. Additionally, the compounds of the invention were tested against a second cancer model—4T1 murine mammary carcinoma, which also metastasizes to the lungs upon injection.

HPSE (platelet) = biological target: T2, HPSE (platelet) (Homo sapiens, UniProt Q9Y251); experiment: cABPP Assay 2, platelet lysates, HPSE; format: biochemical
T2 construct: endogenous in cells; host or cells: human platelet lysates
T2 sequence (Q9Y251 158-543 limits assumed): T1 sequence (Q9Y251 158-543 limits assumed)
T2 sequence (Q9Y251 36-109 limits assumed): T1 sequence (Q9Y251 36-109 limits assumed)
Description: For further competitive ABPP studies, a working protein mixture was prepared by mixing the platelet lysates (87.5 μL), buffer (pH 5.0, 150 mM, 157.5 μL) and 3 M NaCl solution (35 μL). The enzymatic reactions were carried out at a constant concentration of read-out 7 (100 nM, final). For each inhibitor 2, 12 and 13, triplicate sets of ten 0.5 mL low protein binding Eppendorf tubes were prepared. Working solutions of each inhibitor (1% DMSO (w/v), 5 μL) in a range of ten concentrations (100, 50, 25, 12.5, 6.3, 3.1, 1.6, 0.8, 0.4, 0 μM) were prepared with MilliQ water and kept on ice. The working protein mixture (8 μL) was added in each protein low binding 0.5 mL Eppendorf tube, and 1 μL of inhibitor solution was added while on ice.
Further cABPP studies were undertaken using platelet lysates to provide a more physiologically realistic environment. Platelet lysates contain complex mixtures of overlapping enzyme activities, including both endo- and exo-β-glucuronidases HPSE and GUSB respectively, thus provide a challenging environment to test inhibitor specificity.

HPSE = biological target: T3, HPSE (Homo sapiens, UniProt Q9Y251); experiment: X-ray crystallography, ligand soaking of HPSE crystals; settings: crystal soaking
T3 sequence (Q9Y251 36-109 limits assumed): T1 sequence (Q9Y251 36-109 limits assumed)
T3 sequence (Q9Y251 158-543 limits assumed): T1 sequence (Q9Y251 158-543 limits assumed)
From the text: Xray diffraction data were collected at 100 K at beamlines i03 (HPSE-2, HPSE-3, HPSE-4, EcGUSB-1, BpHep-3), i04 (AcGH79-2, BpHep-2) and i04-1 (Apo-AcGH79, AcGH79-1, AcGH79-3) of the Diamond Light Source UK. Reflections were autoprocessed using the XIA2 pipeline. Complexes were solved by directly refining against their unliganded structures where isomorphous, or else solved by molecular replacement with PHASER (search model PDB accessions: 5E98 (HPSE), 3VNY (AcGH79), 3K46 (EcGUSB), 5BWI (BpHep)). […] Ligand coordinates were built using jLigand. Diagrams were generated using PyMOL.
HPSE—Well diffracting crystals of HPSE were obtained by the sitting-drop vapor-diffusion method at 20° C. using a well solution containing 0.1 M MES pH 5.5, 0.1 M MgCl2, 17% (w/v) PEG 3350, and a protein to well solution ratio of 200 nl:500 nl. Crystals typically appeared after 1 week. Inhibitor ligand complexes were obtained by transferring HPSE crystals to drops of well solution supplemented with 25% (v/v) ethylene glycol and 1-5 mM inhibitor. Crystals were incubated with ligand for ˜2-4 h, then directly harvested and flash-cooled in LN2 for data collection.
To better understand the molecular basis of interaction between our inhibitors and their targets, we turned to X-ray crystallography, using ligand soaking to derivatize enzymes in crystallo.

CC(=O)NC1C(O)[C@H](O)C(CO)O[C@@H]1O[C@H]1C(O)C(O)[C@@H]2OC2C1C(=O)O (stereo partly drawn) [Compound 2, 4-O-(2-N-acetyl-2-deoxy-D-glucopyranosyl)-glucurono-cyclophellitol]
IC50 (rHPSE): 0.3 ± 0.2 µM | lung metastases (B16) (B16-BL6 melanoma cells): marked reduction in lung growths | IC50 (HPSE (platelet); apparent IC50, in-gel competitive ABPP-based assay, platelet lysate, read-out: In vitro IC50 HPSE (platelet)): 0.9 ± 0.3 µM | inhibitor concentration down to which HPSE signal is abrogated (HPSE (platelet); platelet lysates, preincubation with inhibitor): 2.5 µM | binding mode in HPSE active site cleft (HPSE): covalent linkages between their pseudo-anomeric carbons and the enzyme nucleophile Glu343
